Source: patent US20200367493A1, “BIOCONTROL ENHANCERS” (YEDA RESEARCH AND DEVELOPMENT CO. LTD., priority 2016, published 2020)
“Also recorded” adds a separate entry of the source.

What was measured:
B. subtilis 3610 = assay: Pellicle assay (floating biofilm formation in MSgg medium); type: cell-based, Bacillus subtilis; settings: for biofilm formation (promotion/induction/enhancement): B. subtilis 3610, 1 μM of the natural compound, compared with not treated; for pellicle formation (inhibition): B. subtilis, 1 μM
Text: B. subtilis, NCBI 3610 (hereafter referred to as “3610”), forms robust and highly structured biofilms in liquid medium. When inoculated into a standing culture of minimal medium, 3610 initially grows planktonically as motile, single cells. The cells then migrate to the air-liquid interface, where they proliferate as long chains of non-motile cells. These chains are highly ordered in parallel patterns and are bound together tightly, presumably by an extracellular matrix (ECM), to form a floating biofilm (pellicle). Growth of the bundled chains continues, giving rise to larger biofilm structures that include the fruiting bodies. Thus, we consider pellicles as a highly robust setting for the study of B. subtilis biofilms
Two different assays were used to screen a natural compounds library (AnalytiCon Discovery GmbH Germany (http://www.ac-discovery.com/) for biofilm formation. A Petri Assay was used to observed changes in structure and size of biofilms, while a Pellicle Assay was used to study biofilm inhibitors and biofilm induction (FIG. 1).
The protocol for the pellicle essay comprised the following steps:
A 2× solution of rich, defined biofilm-inducing MSgg medium (Branda, S. S., Gonzalez-Pastor, J. E., Ben-Yehuda, S., Losick, R. & Kolter, R. Fruiting body formation by Bacillus subtilis. Proceedings of the National Academy of Sciences of the United States of America 98, 11621-11626, doi:10.1073/pnas.191384198 (2001)), without the calcium chloride and iron(III) chloride hexahydrate was prepared. After filter sterilization, the calcium chloride was added. The medium was ready to use directly or it could be stored at 4° C. in the dark.
A 1× dilution medium was prepared on the day of the experiment. The 2× MSgg medium was diluted to 1× with sterile distilled water (pellicles) or sterile 3% hot (80° C.) agar (biofilms) and iron(III) chloride hexahydrate added to a final concentration of 50 μM (pellicles) or […] (biofilms). Molecules for screening were then added.
Compared to the original MSgg recipe (Branda, S. S., et al. (2001) ibid), the medium used contained 50 μg/ml threonine and the iron concentration to grow biofilm colonies on solid MSgg medium was increased 2.5× to optimize the wrinkled colony morphology. After solidification of the agar, dry the solid MSgg plates in a biological hood for 30-45 min prior to the inoculation.
The next step was to streak out B. subtilis from a −80° C. stock (a LB culture of 10^9 cells/ml frozen in 20% glycerol) to isolate single colonies on a LB-1.5% agar plate with a sterile tip or applicator stick. Cultures were grown overnight at 30° C.
Following this, a single colony was picked from the LB-1.5% agar plate for growth in 3 ml LB broth at 37° C. for 4 hours in a shaking incubator (shaking speed 200 rpm) The LB broth was replaced with biofilm-inducing MSgg medium prior to inoculation by centrifuging 1 ml starter culture for 3 min at 6000 g, carefully removing the supernatant and re-suspending the pellet in 1 ml MSgg medium. The rest of the culture can be discharged.
During the growth of the starter culture, a 12-well cell-culture multidish plate containing 3 ml of MSgg medium without or with a concentration range of the small molecules (natural products to be tested) was prepared. To rule out edge effects, the location of the different concentrations was distributed across the multidish plate. Alternatively, use 24-well cell-culture multidish plates containing 1.5 ml of MSgg medium was used.
The wells of the 12-well cell-culture multidish plate were inoculated with […] of the washed starter culture (1:1000 dilution). In certain embodiments, a lower dilution ratio, i.e. 1:500 could be used. This decreases the development time of the pellicles.
Grow the pellicles at 23° C. was under static conditions for three days. The pellicles were no moved during this time, as it could affect the final surface morphology of the pellicle.
Pictures of the pellicles were taken with a high resolution camera. […]

sinI = sinI transcription, sinI promoter fused to luciferase reporter; type: cell-based, Bacillus subtilis; settings: 1 μM; PsinI-luciferase, luminescence divided by OD600
Procedure: (§1) Planktonic growth, attachment to surfaces, induction of extracellular matrix genes tapA-sipW-tasA operon sinI regulator involved in biofilm formation, and biofilm development was measured and compared amongst the natural compounds identified by the screen. For the analysis for enhancement of biofilm formation and transcription of matrix genes 1 uM aqueous solutions comprising each natural compound were tested.
(§2) Gene expression: Gene expression was measure using reporter genes (luciferase or green fluorescent protein) Luminescence of a strains harboring sacA: PsinI-luciferase was measure in the presence or absence of 1 μM of the natural compounds presented in FIGS. 2A and 2B. Fluorescence of a strain harboring sacA::PtapA-gfp was measured in presence or absence of 1 μM of the natural compounds shown in FIGS. 2A and 2B. Results are a representative of six independent experiments; the SD represents an average of 5 wells.
(§3) The expression of SinI, the matrix regulator, was measured as was the expression of tapA-sipW-tasA operon, in the absence and presence of the natural compounds listed in FIG. 2B. Specifically, sinI transcription was monitored. SinI transcription is a direct readout for the activity of the genetic pathway resulting in matrix production and biofilm formation. sinI transcription in biofilm-inducing medium was monitored using the sinI promoter fused to luciferase.

tapA-sipW-tasA operon = assay: tapA-sipW-tasA transcription, PtapA-gfp reporter; type: cell-based, Bacillus subtilis; settings: B. subtilis; matrix genes (sinI, tapA reporters); 1 μM
Procedure: as §1, §2, §3

P. sytingae pv tomato = assay: Submerged biofilm formation, crystal violet staining of attached cells; type: cell-based
Text: Similar to Example 1, a Pellicle Assay was used to study biofilm inhibitors (FIG. 1). Analysis of submerged biofilm formation by P. sytingae pv tomato included staining attached cells with crystal violet and quantified as known in the art (Mol Microbiology 28:449-461).

B. subtilis = assay: Planktonic growth; type: cell-based, Bacillus subtilis; settings: 1 μM
Procedure: as §1

## COc1cc2oc(-c3ccc(O)c(O)c3)c(OC)c(=O)c2c(O)c1OC [2-(3,4-dihydroxyphenyl)-5-hydroxy-3,6,7-trimethoxy-4H-chromen-4-one]
B. subtilis 3610
  biofilm formation (promotion/induction/enhancement): enhance biofilm formation; also recorded: promoted, induced, and enhanced
sinI
  transcription of sinI: significantly enhanced
tapA-sipW-tasA operon
  transcription expression of matrix genes: enhance transcription expression of matrix genes

## COc1cc(O)c2c(=O)c(O[C@@H]3O[C@H](CO)[C@@H](O)[C@H](O)[C@H]3O[C@@H]3O[C@H](CO)[C@@H](O)[C@H](O)[C@H]3O)c(-c3ccc(O)c(O)c3)oc2c1 [3-(((2S,3R,4S,5S,6R)-4,5-dihydroxy-6-(hydroxymethyl)-3-(((2S,3R,4S,5S,6R)-3,4,5-trihydroxy-6-(hydroxymethyl)tetrahydro-2H-pyran-2-yl)oxy)tetrahydro-2H-pyran-2-yl)oxy)-2-(3,4-dihydroxyphenyl)-5-hydroxy-7-methoxy-4H-chromen-4-one]
B. subtilis 3610
  biofilm formation (promotion/induction/enhancement): enhance biofilm formation; also recorded: promoted, induced, and enhanced
sinI
  transcription of sinI: significantly enhanced
tapA-sipW-tasA operon
  transcription expression of matrix genes: enhance transcription expression of matrix genes

## CCCCCc1cc(O)c(C/C=C(\C)CCC=C(C)C)c(O)c1 [(E)-2-(3,7-dimethylocta-2,6-dien-1-yl)-5-pentylbenzene-1,3-diol]
B. subtilis 3610
  pellicle formation (inhibition): blocked pellicle formation; also recorded: mildly inhibited
P. sytingae pv tomato
  attachment in the plant pathogen (inhibition): strongly inhibited attachment
B. subtilis
  effect on planktonic growth: inert to planktonic growth

## C=C[C@H]1[C@H](OC2OC(CO)C(O)C(O)C2O)OC=C(C(=O)OC)[C@H]1CCOC(=O)c1cc(O)c(O)c(O)c1 (stereo partly drawn) [cornuside, (2S,3R,4S)-methyl 2-((3,4,5-trihydroxy-6-(hydroxymethyl)tetrahydro-2H-pyran-2-yl)oxy)-4-(2-((3,4,5-trihydroxybenzoyl)oxy)ethyl)-3-vinyl-3,4-dihydro-2H-pyran-5-carboxylate]
B. subtilis 3610
  biofilm formation (promotion/induction/enhancement): enhance biofilm formation; also recorded: promoted, induced, and enhanced
sinI
  transcription of sinI: significantly enhanced
tapA-sipW-tasA operon
  transcription expression of matrix genes: enhance transcription expression of matrix genes

## COc1cc(-c2cc(=O)c3c(O)c(OC)c(OC)c(O)c3o2)ccc1O [isothymonin, 5,8-dihydroxy-2-(4-hydroxy-3-methoxyphenyl)-6,7-dimethoxy-4H-chromen-4-one]
B. subtilis 3610
  biofilm formation (promotion/induction/enhancement): enhance biofilm formation; also recorded: promoted, induced, and enhanced
sinI
  transcription of sinI: significantly enhanced
tapA-sipW-tasA operon
  transcription expression of matrix genes: enhance transcription expression of matrix genes

## eupahakonenin B
B. subtilis 3610
  pellicle formation (inhibition): blocked pellicle formation
B. subtilis
  effect on planktonic growth: inert to planktonic growth
